Measurements: article PMC4747952, “Development of TASP0410457 (TASP457), a novel dihydroquinolinone derivative as a PET radioligand for central histamine H3 receptors” (EJNMMI Research, 2016)

How the values were obtained:
H3Rs [1] = test: In vitro autoradiography, monkey brain sections; assay type: binding, rhesus monkey; settings: in the presence of 10 μM of unlabelled TASP0410457 or ciproxifan
Experimental: (§1) Twenty-micrometer-thick sagittal rat and monkey brain sections were incubated in an autoradiography buffer containing 5 nM [^11C]TASP0410457 as described in Additional file 1: Supplemental methods. The binding was also performed in the presence of 10 μM of unlabeled TASP0410457, thioperamide, or ciproxifan for the rat sections and 10 μM of TASP0410457 or ciproxifan for the monkey sections to assess the specific radioligand binding.
(§2) (25:75) at a flow rate of 1 mL/min. A representative chromatogram of [11C]TASP0390136 is shown in […]
(§3) Twenty-micrometer-thick sagittal rat brain sections were pre-incubated with autoradiography buffer (50 mM Tris containing 120 mM NaCl, 2 mM KCl, 1 mM MgCl2, and 1 mM CaCl2, pH7.4) for 30 min, then incubated in the autoradiography buffer containing 5 nM [11C]TASP0410457 at 25°C for 1 h. The sections were washed two times with ice-cold autoradiography buffer for 5 min, rinsed with ice-cold water for 10 s, and then quickly dried. The radioactivity retained on the sections was determined using a BAS imaging plate and the BAS5000 system (GE Healthcare, Piscataway, NJ). For a blocking study, brain slices were reacted with [11C]TASP0410457 in the presence of […] of TASP0410457, thioperamide, or ciproxifan.
(§4) Similarly, autoradiography using […] sagittal rhesus monkey brain sections was conducted. […]

H3Rs [2] = biological target: T1, H3Rs (Rattus norvegicus, UniProt Q9QYN8); test: In vitro autoradiography, rat brain sections; assay type: binding; settings: 5 nM radioligand
T1 construct: from tissue; host or cells: sagittal rat brain sections
Experimental: as §1, §2, §3, §4

H3R = biological target: T2, H3R (Rattus norvegicus, UniProt Q9QYN8); test: PET imaging of rat brains; assay type: in vivo; settings: for cerebellar SUV at 15 min after radioligand injection: mean ± S.D.
T2 construct: from tissue; host or cells: brain of living Sprague-Dawley rats
Experimental: Six-week-old male Sprague-Dawley rats were purchased from Japan SLC (Shizuoka, Japan). PET scans were performed using a microPET Focus 220 small-animal scanner (Siemens Medical Solutions USA, Knoxville, TN). The rats were anesthetized with 1.5–2 % isoflurane during the imaging session, while their heart rate and blood oxygen saturation were monitored by pulse oximeter (CANL-425SVA; Med Associates, St. Albans, VT). Body temperature was kept at 37 °C with a heating pad (BWT-100; Bio Research Center, Aichi, Japan). Following the transmission scans for attenuation correction using a ^68Ge-^68Ga point source, emission scans were performed for 90 min in 3D list-mode with an energy window of 350–750 keV, immediately after the intravenous injection of each radioligand. Mean ± S.D. of the injected radioactivity of [^11C]TASP0410457, [^11C]TASP0434988, and [^11C]TASP0390136 was 119 ± 26 MBq, 132 ± 34 MBq, and 124 ± 17 MBq, respectively (n = 3–5). Mean ± S.D. of the mass doses of [^11C]TASP0410457, [^11C]TASP0434988, and [^11C]TASP0390136 was 2.4 ± 1.2 μg/kg, 1.9 ± 0.4 μg/kg, and 4.2 ± 1.6 μg/kg, respectively (n = 3–5).
To assess the specificity of radioligand binding, thioperamide was injected intravenously at a dose of 10 mg/kg at 30 s before the injection of each radioligand.
All list-mode data were sorted into 3D sinograms, which were then Fourier rebinned into 2D sinograms (frames: 1 min × 4, 2 min × 8 and 5 min × 14). Images were reconstructed using 2D-filtered back-projection with a 0.5-mm Hanning filter.
PET image and magnetic resonance imaging (MRI) template were co-registered using PMOD software (PMOD version 3.206; Zurich, Switzerland) according to the following procedure as in our previous works: Outline of the whole brain and positions of eyes in PET images at an early phase of the scan were initially matched to those in MRI images, and then further translations and rotations of PET images were manually performed for fine alignments. Finally, parameters for the co-registration were applied to the entire dynamic PET data. Regions of interest (ROIs) were placed on the striatum, hippocampus, and cerebellum using PMOD software with reference to the MRI template as described elsewhere. The tissue time-activity curves (TACs) for these ROIs were generated by calculating the SUV for each time frame as follows: SUV=radioactivityBq/g×bodyweightg/injectedradiotracerdoseBq
The binding potentials relative to the non-displaceable uptake (BPND) in the striatum and hippocampus were estimated using the simplified reference tissue model (SRTM) with PMOD software using the cerebellum as a reference region, as the rat cerebellum is devoid of H3R [26].

[3] = SRTM, cerebellum as reference region

T2 sequence (Q9QYN8 whole entry): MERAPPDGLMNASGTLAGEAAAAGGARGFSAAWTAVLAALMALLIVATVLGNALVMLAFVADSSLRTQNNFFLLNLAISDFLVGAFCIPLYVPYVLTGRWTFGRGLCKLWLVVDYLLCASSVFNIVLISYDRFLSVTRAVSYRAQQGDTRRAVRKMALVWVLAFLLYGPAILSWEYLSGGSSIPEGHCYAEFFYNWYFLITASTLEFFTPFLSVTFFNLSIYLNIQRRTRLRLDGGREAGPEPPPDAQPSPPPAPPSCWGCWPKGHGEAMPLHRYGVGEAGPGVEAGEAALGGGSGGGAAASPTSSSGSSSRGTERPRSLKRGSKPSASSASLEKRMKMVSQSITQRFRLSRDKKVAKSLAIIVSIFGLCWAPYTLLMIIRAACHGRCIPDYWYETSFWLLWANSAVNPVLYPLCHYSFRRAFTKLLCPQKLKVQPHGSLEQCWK
T1 sequence (Q9QYN8 whole entry): as above

binding in the monkey cerebellum and brainstem under blockade (H3Rs [1]): noticeably decreased | BPND, Hippocampus (H3R; [3]): 0.53 ± 0.06 | BPND, Striatum (H3R; [3]): 1.26 ± 0.12 | cerebellar SUV at 15 min after radioligand injection (H3R; baseline): 0.64 ± 0.13 | peak SUV, cerebellum (H3R; bolus intravenous, baseline): ~1.2 | peak SUV, hippocampus (H3R; bolus intravenous, baseline): around 1.5 | peak SUV, striatum (H3R; bolus intravenous, baseline): ~2.0 | time for specific binding to reach a pseudo-equilibrium state (H3R; target-to-reference ratios, after intravenous injection): ≤ 15 min | cerebellar SUV at 15 min after radioligand injection (H3R; thioperamide predosing 10 mg/kg): 0.47 ± 0.09
SMILES: [11CH3]Oc1ccc(N2C(=O)CCc3cc(OC4CCN(C5CCC5)CC4)ccc32)cn1 [[^11C]TASP0410457]
autoradiographic binding in rat brain sections (H3Rs [2]): abundant specific binding in the striatum and neocortex
